This passage reports Ki results from patent US8735391B2, “Synthesis of functionalized octahydro-isoquinolin-1-one-8-carboxamides, octahydro-isoquinolin-1-one-8-carboxylic esters and analogs, and therapeutic methods” (University of Kansas, priority 2008, dated 2014).

In this assay the target is DOR (Homo sapiens, UniProt P41143). Kind of assay: Opioid secondary binding, DOR (Table 4). The note with it: Opioid secondary binding activity for Formula 10 analogs.
DOR, sequence (P41143 whole entry): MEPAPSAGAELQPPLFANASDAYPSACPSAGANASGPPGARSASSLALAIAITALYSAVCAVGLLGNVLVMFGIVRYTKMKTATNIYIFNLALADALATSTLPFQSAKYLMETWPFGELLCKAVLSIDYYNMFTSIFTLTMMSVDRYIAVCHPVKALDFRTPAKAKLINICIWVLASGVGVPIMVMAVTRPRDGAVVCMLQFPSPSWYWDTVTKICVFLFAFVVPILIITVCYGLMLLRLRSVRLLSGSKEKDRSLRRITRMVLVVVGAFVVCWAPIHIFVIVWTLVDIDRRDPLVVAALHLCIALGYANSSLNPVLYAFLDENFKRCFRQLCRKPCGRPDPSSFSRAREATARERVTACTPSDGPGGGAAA
Molecule `O=C(Nc1ccc(I)cc1)[C@@H]1CC=C[C@@H]2CCN(CC3CC3)C(=O)[C@@H]21` (racemic) [compound 11942] displayed a Ki of 1280 nM. Next, `Cc1cc(C)c(NC(=O)[C@@H]2CC=C[C@@H]3CCN(CC4CC4)C(=O)[C@@H]32)c(C)c1` (racemic) [compound 11945]: over 10000 nM. Next, `O=C(NC12CC3CC(CC(C3)C1)C2)[C@@H]1CC=C[C@@H]2CCN(c3ccccc3)C(=O)[C@@H]21` (racemic) [compound 11946]: 116 nM. `O=C(Nc1ccc([N+](=O)[O-])cc1)[C@@H]1CC=C[C@@H]2CCN(c3ccccc3)C(=O)[C@@H]21` (racemic) [compound 11947] returned an inhibition constant (Ki) of 141 nM.

For the molecule `O=C(Nc1ccc(I)cc1)[C@@H]1CC=C[C@@H]2CCN(c3ccccc3)C(=O)[C@@H]21` (racemic) [compound 11948], affinity was put at a Ki of 83 nM. Regarding `O=C(NCc1cccc(Br)c1)[C@@H]1CC=C[C@@H]2CCN(c3ccccc3)C(=O)[C@@H]21` (racemic) [compound 11949], the Ki was 302 nM. Next, `Cc1ccc(CNC(=O)[C@@H]2CC=C[C@@H]3CCN(c4ccccc4)C(=O)[C@@H]32)cc1` (racemic) [compound 11950]: 297 nM; `Cc1cc(C)c(NC(=O)[C@@H]2CC=C[C@@H]3CCN(c4ccccc4)C(=O)[C@@H]32)c(C)c1` (racemic) [compound 11951]: 4300 nM; `Cc1ccc(CNC(=O)[C@@H]2CC=C[C@@H]3CCN(Cc4ccccc4)C(=O)[C@@H]32)cc1` (racemic) [compound 11956]: 2360 nM.

`Cc1cc(C)c(NC(=O)[C@@H]2CC=C[C@@H]3CCN(Cc4ccccc4)C(=O)[C@@H]32)c(C)c1` (racemic) [compound 11957]: the Ki is 3220 nM.

For `O=C([C@@H]1CC=C[C@@H]2CCN(C3CCCCC3)C(=O)[C@@H]21)N1CCCC1` (racemic) [compound 12084], the affinity, expressed as Ki, was 6290 nM. `O=C(NCC1CC1)[C@@H]1CC=C[C@@H]2CCN(C3CCCCC3)C(=O)[C@@H]21` (racemic) [compound 12085] gave a Ki of 475 nM. As for `CN(C)C(=O)[C@@H]1CC=C[C@@H]2CCN(C3CCCCC3)C(=O)[C@@H]21` (racemic) [compound 12086], the Ki is over 10000 nM. On to `O=C(Nc1ccc(Cl)cc1)[C@@H]1CC=C[C@@H]2CCN(C3CCCCC3)C(=O)[C@@H]21` (racemic) [compound 12087], for which the Ki was 582 nM. Next, `O=C(Nc1cc(F)c(F)c(F)c1)[C@@H]1CC=C[C@@H]2CCN(C3CCCCC3)C(=O)[C@@H]21` (racemic) [compound 12088]: 2790 nM; `O=C(NCC1CC1)[C@@H]1CC=C[C@@H]2CCN(CC3CC3)C(=O)[C@@H]21` (racemic) [compound 12090]: 5650 nM; `O=C(Nc1ccc(Cl)cc1)[C@@H]1CC=C[C@@H]2CCN(CC3CC3)C(=O)[C@@H]21` (racemic) [compound 12092]: 3230 nM. On to `O=C(Nc1cc(F)c(F)c(F)c1)[C@@H]1CC=C[C@@H]2CCN(CC3CC3)C(=O)[C@@H]21` (racemic) [compound 12093], for which the Ki turned out to be 4370 nM. Next, `O=C([C@@H]1CC=C[C@@H]2CCN(c3ccccc3)C(=O)[C@@H]21)N1CCCC1` (racemic) [compound 12094]: over 10000 nM; `O=C(NCC1CC1)[C@@H]1CC=C[C@@H]2CCN(c3ccccc3)C(=O)[C@@H]21` (racemic) [compound 12095]: 1220 nM. As for `CN(C)C(=O)[C@@H]1CC=C[C@@H]2CCN(c3ccccc3)C(=O)[C@@H]21` (racemic) [compound 12096], the Ki is over 10000 nM.

The molecule `O=C(Nc1ccc(Cl)cc1)[C@@H]1CC=C[C@@H]2CCN(c3ccccc3)C(=O)[C@@H]21` (racemic) [compound 12097] returned a Ki of 168 nM. Next, `O=C(Nc1cc(F)c(F)c(F)c1)[C@@H]1CC=C[C@@H]2CCN(c3ccccc3)C(=O)[C@@H]21` (racemic) [compound 12098]: 289 nM; `O=C1[C@H]2[C@H](C=CC[C@H]2C(=O)N2CCCC2)CCN1Cc1ccccc1` (racemic) [compound 12099]: 6650 nM.

`O=C(NCC1CC1)[C@@H]1CC=C[C@@H]2CCN(Cc3ccccc3)C(=O)[C@@H]21` (racemic) [compound 12100] registered a Ki of 539 nM. Next, `CN(C)C(=O)[C@@H]1CC=C[C@@H]2CCN(Cc3ccccc3)C(=O)[C@@H]21` (racemic) [compound 12101]: over 10000 nM; `O=C(Nc1cc(F)c(F)c(F)c1)[C@@H]1CC=C[C@@H]2CCN(Cc3ccccc3)C(=O)[C@@H]21` (racemic) [compound 12103]: 180 nM. For the molecule `C=CCNC(=O)[C@@H]1CC=C[C@@H]2CCN(CC3CCCCC3)C(=O)[C@@H]21` (racemic) [compound 12110], the Ki was 1430 nM. Regarding `CN(C(=O)[C@@H]1CC=C[C@@H]2CCN(CC3CCCCC3)C(=O)[C@@H]21)c1ccccc1` (racemic) [compound 12113], the affinity corresponds to a Ki of 2830 nM. Next, `CCOC(=O)C1CCCCN1C(=O)[C@@H]1CC=C[C@@H]2CCN(CC3CCCCC3)C(=O)[C@@H]21` (mixture of isomers) [compound 12115]: 9160 nM; `NC(=O)c1ccccc1NC(=O)[C@@H]1CC=C[C@@H]2CCN(c3ccccc3)C(=O)[C@@H]21` (racemic) [compound 12117]: 648 nM; `CN(C(=O)[C@@H]1CC=C[C@@H]2CCN(c3ccccc3)C(=O)[C@@H]21)c1ccccc1` (racemic) [compound 12119]: 4010 nM.

The molecule `C=CCNC(=O)[C@@H]1CC=C[C@@H]2CCN(Cc3ccccc3)C(=O)[C@@H]21` (racemic) [compound 12122] displayed an inhibition constant (Ki) of 3430 nM. The molecule `NC(=O)c1ccccc1NC(=O)[C@@H]1CC=C[C@@H]2CCN(Cc3ccccc3)C(=O)[C@@H]21` (racemic) [compound 12123] registered a Ki of 5930 nM. Consider `CCOC(=O)c1ccc(NC(=O)[C@@H]2CC=C[C@@H]3CCN(Cc4ccccc4)C(=O)[C@@H]32)cc1` (racemic) [compound 12124], for which the affinity corresponds to a Ki of 7820 nM. Take `O=C(Nc1ccccc1)[C@@H]1CC=C[C@@H]2CCN(Cc3ccccc3)C(=O)[C@@H]21` (racemic) [compound 12125]: the Ki was over 10000 nM.

Turning to `COc1ccc(CNC(=O)[C@@H]2CC=C[C@@H]3CCN(Cc4ccccc4)C(=O)[C@@H]32)cc1OC` (racemic) [compound 12126], the Ki was over 10000 nM. Next, `CCOC(=O)C1CCCCN1C(=O)[C@@H]1CC=C[C@@H]2CCN(Cc3ccccc3)C(=O)[C@@H]21` (mixture of isomers) [compound 12127]: over 10000 nM; `CC(C)N(C(=O)[C@@H]1CC=C[C@@H]2CCN(CC3CCCCC3)C(=O)[C@@H]21)C1CCCCC1` (racemic) [compound 12134]: 1630 nM; `O=C(NCc1ccc(Cl)c(Cl)c1)[C@@H]1CC=C[C@@H]2CCN(CC3CCCCC3)C(=O)[C@@H]21` (racemic) [compound 12136]: 1300 nM. Next, `O=C(Nc1cnccn1)[C@@H]1CC=C[C@@H]2CCN(CC3CCCCC3)C(=O)[C@@H]21` (racemic) [compound 12138]: 1650 nM; `CC(C)N(C(=O)[C@@H]1CC=C[C@@H]2CCN(c3ccccc3)C(=O)[C@@H]21)C1CCCCC1` (racemic) [compound 12140]: 416 nM. Next, `O=C(NCc1ccc(Cl)c(Cl)c1)[C@@H]1CC=C[C@@H]2CCN(c3ccccc3)C(=O)[C@@H]21` (racemic) [compound 12142]: 103 nM. In turn, `O=C(NC1CCCCC1)[C@@H]1CC=C[C@@H]2CCN(CC3CC3)C(=O)[C@@H]21` (racemic) [compound 12152] showed an inhibition constant (Ki) of 2520 nM. Next, `O=C(Nc1ccccc1)[C@@H]1CC=C[C@@H]2CCN(CC3CC3)C(=O)[C@@H]21` (racemic) [compound 12153]: 6620 nM. With `O=C(Nc1cccc(Cl)c1)[C@@H]1CC=C[C@@H]2CCN(CC3CC3)C(=O)[C@@H]21` (racemic) [compound 12154], the affinity corresponds to a Ki of 1180 nM. Next, `O=C(Nc1ccc(F)c(F)c1)[C@@H]1CC=C[C@@H]2CCN(CC3CC3)C(=O)[C@@H]21` (racemic) [compound 12155]: 2250 nM; `O=C(Nc1ccc(Cl)c(C(F)(F)F)c1)[C@@H]1CC=C[C@@H]2CCN(CC3CC3)C(=O)[C@@H]21` (racemic) [compound 12156]: 788 nM. Next, `O=C(Nc1nccs1)[C@@H]1CC=C[C@@H]2CCN(CC3CC3)C(=O)[C@@H]21` (racemic) [compound 12157]: 3500 nM; `CN(C(=O)[C@@H]1CC=C[C@@H]2CCN(C3CCCCC3)C(=O)[C@@H]21)c1ccccc1` (racemic) [compound 12160]: 2980 nM; `COc1ccc(-c2cccc(CN3CC[C@H]4C=CC[C@@H](C(=O)Nc5ccc(Cl)c(C(F)(F)F)c5)[C@H]4C3=O)c2)cc1` (racemic) [compound 12161]: 2130 nM. Next, `O=C(Nc1ccc(Br)c(C(F)(F)F)c1)[C@@H]1CC=C[C@@H]2CCN(CC3CC3)C(=O)[C@@H]21` (racemic) [compound 12172]: 1280 nM; `O=C(Nc1ccc(Br)c(C(F)(F)F)c1)[C@@H]1CC=C[C@@H]2CCN(CC3CCCCC3)C(=O)[C@@H]21` (racemic) [compound 12173]: 508 nM. Take `O=C(Nc1ccc(F)c(C(F)(F)F)c1)[C@@H]1CC=C[C@@H]2CCN(Cc3ccccc3)C(=O)[C@@H]21` (racemic) [compound 13474]: the Ki was determined as 192 nM. Next, `Cc1ccc(NC(=O)[C@@H]2CC=C[C@@H]3CCN(Cc4ccccc4)C(=O)[C@@H]32)c(F)c1F` (racemic) [compound 13476]: 559 nM; `Cc1ccc(NC(=O)[C@@H]2CC=C[C@@H]3CCN(Cc4ccccc4F)C(=O)[C@@H]32)cc1C(F)(F)F` (racemic) [compound 13479]: 9.5 nM. Next, `O=C(Nc1ccccc1)[C@@H]1CC=C[C@@H]2CCCN(C3CCCCC3)C(=O)[C@@H]21` (racemic) [compound 14423]: 8840 nM; `O=C(NC1CCCCC1)[C@@H]1CC=C[C@@H]2CCCN(C3CCCCC3)C(=O)[C@@H]21` (racemic) [compound 14424]: 1690 nM; `O=C(Nc1cccc(Cl)c1)[C@@H]1CC=C[C@@H]2CCCN(C3CCCCC3)C(=O)[C@@H]21` (racemic) [compound 14425]: 6040 nM.
